{
  "source": "patent US20110318344A1",
  "about": "“Tumor Treatment” (MEDIZINISCHE UNIVERSITAET WIEN, priority 2009, published 2011)",
  "key": {"MDAH-2774 cells": {"test_system": "MDAH-2774 cells", "assay": "Proliferation assay (cell number by CASY cell counter, doubling time)", "assay_type": "cell-based, human", "conditions": "MDAH-2774, HCRP1-silenced vs controls (FIG. 7B)", "method": "To maintain the logarithmic phase, cells were split at intervals of 48 hours, along with the determination of the cell number by a CASY cell counter (Innovatis AG, Bielefeld, Germany). This procedure was performed in triplicates over a time-span of 6 days and confirmed by a replication of the whole experiment. From the obtained data doubling times (dt) were calculated and depicted as dt-1."}, "SK-OV-3 cells": {"test_system": "SK-OV-3 cells", "assay": "Proliferation assay (cell number by CASY cell counter, doubling time)", "assay_type": "cell-based, human", "method": "The SK-OV-3 cell line was cultured equally the MDAH-2774 cell line except for the use of McCoy's medium. For applying the Tet-Off inducible system, founder cell lines were generated by transfecting SK-OV-3 cells with the pTet-Off vector (neo^r) encoding a tetracyclin repressible transactivator (tTA). Resistant colonies were selected with 200 μg/ml G418 and characterized by transient transfection with the luciferase reporter plasmid (pTRE-Luc), whose promoter is induced by the transactivator. Luciferase activity in the presence and absence of tetracycline was measured to identify cells with maximal promoter inducibility. […] These two founder cell lines were used to establish cells inducible for HCRP1-specific shRNA constructs (Open Biosystems; #V2HS 21202, #V2HS 21203), which were cloned into the SIN-TREmiR30-PIG vector (purr) downstream of the tetracycline inducible promoter. Thus, presence of tetracycline in the culture medium would suppress shRNA expression, while its withdrawal would induce the knock-down of HCRP1. […]\nTo maintain the logarithmic phase, cells were split at intervals of 48 hours, along with the determination of the cell number by a CASY cell counter (Innovatis AG, Bielefeld, Germany). […] From the obtained data doubling times (dt) were calculated and depicted as dt-1."}},
  "note": "“Also recorded” adds a separate entry of the source.",
  "data": [
    {"smiles": "CS(=O)(=O)CCNCc1ccc(-c2ccc3ncnc(Nc4ccc(OCc5cccc(F)c5)c(Cl)c4)c3c2)o1", "note": "[Lapatinib]", "values": [
      {"measurement": "dependence of the anti-proliferative effect on HCRP1 expression", "setting": "MDAH-2774 cells", "value": "independent of HCRP1 expression"},
      {"measurement": "dependence of the anti-proliferative effect on HCRP1 expression", "setting": "SK-OV-3 cells; SKOV-3, HCRP1-silenced vs controls (FIG. 7A)", "value": "independent of HCRP1 expression; also recorded: unaffected by HCRP1 expression"},
      {"measurement": "doubling time", "setting": "SK-OV-3 cells; SKOV-3 cells, 4 μM Lapatinib, 6 days, HCRP1 status not specified", "value": 37.3, "unit": "h"}
    ]}
  ]
}
